Experiments:
[1] = UV absorption data (Example 74); type: physicochemical; settings: for Absorbance @ 375 nm: 20 mg/l concentrations, not the molar extinction values
Experimental: In the following examples the absorbance at 375 nm is reported for 20 mg/l concentrations. This is not the molar extinction values.

[2] = Yellowness color of solutions in butyl acetate, Macbeth Color-Eye (Example 75); type: physicochemical; settings: 30 mg/100 mL in butyl acetate; for DE: corresponding Yellowness Index value; for b: yellowness, Macbeth Color-Eye
Experimental: The following examples show the difference in color between some of the instant compounds as measured by a Macbeth Color-Eye instrument at a concentration of 30 mg/100 mL in butyl acetate. […] In the table, the compounds are listed by increasing b value. The instrument measures yellowness as b and DE is the corresponding Yellowness Index value.

[3] = Durability in polycarbonate film, 2000 hours (Example 81); type: physicochemical; settings: for % Loss / Absorbance (max) Loss units: 2000 hrs; for % Loss / Absorbance (max) Loss units / Absorbance (max) 2000 hrs: BB 2.19 wt %, J 1.81 wt %; for Absorbance (max) 0 hrs: BB 2.19 wt % (352 nm), J 1.81 wt % (344 nm)
Experimental: The durability of representative benzotriazoles in thermoplastic substrates is determined by incorporating various test compounds into solvent cast films of poly(vinyl chloride), polycarbonate and polystyrene resins. The free standing films are mounted into cardboard holders, secured in metal frames and exposed in an Atlas […] […] Loss of UV absorber is determined by monitoring the loss of diagnostic UV absorption as described earlier. Performance is measured by a change in color or the physical integrity of the film. Polycarbonate flake (LEXAN® 145, General Electric) is dissolved in methylene chloride at room temperature along with between 1 and 3% by weight of test benzotriazole, based on the polycarbonate. Films are cast using a calibrated drawdown bar to prepare 1 mil thick film after drying. […] Weather-meter.

[4] = UV absorption data (Example 74); type: physicochemical; parameters: ε @ λ max: unit not given beside the values
[5] = Loss of UV absorber from high solids thermoset acrylic clear coat, Xenon Arc Weather-Ometer (Example 77); type: physicochemical; settings: after 1211 hours Xenon arc exposure; clear coat with 1% hindered amine; UV absorber at 5 mmol % by weight
Experimental: To ascertain the effect on thermal durability and loss rate from a high solids thermoset acrylic coating of various 2H-benzotriazole UV absorbers substituted by a variety of electron withdrawing and electron donating groups, the following tests are carried out.
A high solids thermoset acrylic clear coat is prepared by mixing an experimental acrylic polyol resin and hexamethoxymethylmelamine (Resimene® 747, Monsanto) at a solids ratio of 60/40. The dodecylbenzene sulfonic acid catalyst (Nacure® 5225; King Industries) is added at 0.70% by weight. A flow aid Modaflow® (Monsanto) is added at 0.25% by weight to form a model acrylic melamine resin system.
The model clear coat is reduced with xylene to a viscosity of 26-27 second using a Zahn #2 cup and applied via a conventional air spray at 50 psi (3.5 Kg/cm^2) over a 1″×3″ (2.54 cm×7.62 cm) quartz slide. Cure is achieved by baking the slide for 30 minutes at 260° F. (127° C.). The clear coat is stabilized with 1% by weight of a hindered amine light stabilizer, bis-(1-octyloxy-2,2,6,6-tetramethylpiperidin-4-yl)sebacate, (TINUVIN® 123, Ciba-Geigy). The various test benzotriazole UV absorbers are incorporated at the 5 mmol % by weight in the clear coat. The film thickness on the quartz slides range from 1.15 to 1.41 mils (0.029 to 0.036 mm).
The films on the quartz slides are weathered according to the following conditions in Xenon Arc Weather-Ometer with a controlled irradiance at 6500 W, using inner quartz and outer borosilicate S-type filter. The irradiation cycle is as follows: 40 minutes of straight irradiation with no water spray, followed by 20 minutes of light plus front spray, followed by 60 minutes of light irradiation and finally by 60 minutes dart plus rear spray (condensation). The setting is at 0.55 W/M^2 at 340 nm, 1.98 kJ/hour. In the light cycle the black panel temperature is controlled at 70±2° C. The relative humidity in the light cycle is in the range of 50-55% and in the dark cycle 100%. The absorbance of the long wavelength UV band as a function of Xenon arc weathering hours are recorded in the table below.
To follow the loss of UV absorbers from the clear coats, UV spectra are measured initially and after weathering at regular time intervals. The UV spectrophotometer measures absorbance linearly up to 5.5 absorbance units using a reference beam attenuation technique.
This is tested by following the ratio of absorbance of the band at about 300 nm and the band at about 340 nm.
The data in the table below are based on formula A after 1211 hours of exposure of the clear coats containing the test benzotriazole UV absorbers.

[6] = Loss of UV absorber from high solids thermoset acrylic melamine clear coat, Xenon-Arc X180 cycle (Example 78); type: physicochemical
Excerpt: Following the general procedure of Example 77, a number of additional benzotriazole test compounds are incorporated into a high solids thermoset acrylic melamine resin at such concentrations between 1.93 and 3% by weight to give equal molar concentrations of test benzotriazole in equal film thickness, and sufficient to give a starting absorbance of approximately 2.0 absorbance units.
The test discs are exposed in a Xenon-Arc Weather-Ometer at X180 cycle (0.45 Watts/M^2). The initial UV absorbance is measured followed by measurements at roughly 250 hour intervals for the first 2000 hours and every 500 hours thereafter. Each clear coat also contains 1% by weight of a hindered amine light stabilizer, bis-(1-octyloxy-2,2,6,6-tetramethylpiperidin-4-yl) sebacate, as well.

[7] = Loss of UV absorber from high solids thermoset acrylic melamine resin, 1002 hours (Example 79); type: physicochemical; settings: 1002 hours exposure; starting absorbance approximately 2.0
Experimental: Following the general procedure of Example 77, representative benzotriazole test compounds are incorporated into a high solids thermoset acrylic melamine resin at concentrations between 1.93 and 3% by weight to give equal molar concentrations of the test benzotriazole in equal film thickness and sufficient to give a starting absorbance of approximately 2.0 absorbance units. The test samples are exposed as described in Example 77 for 1002 hours.

Compound | melting point | Absorbance @ 375 nm [1] | DE [2] | b [2] | % Loss [3] | Absorbance (max) Loss units [3] | Absorbance (max) 0 hrs [3] | Absorbance (max) 2000 hrs [3] | ε @ λ max [4] | λ max nm [4] | Units Absorbance Loss [5] | Units of Absorbance Loss [7] | further results
CC(C)(C)CC(C)(C)c1ccc(O)c(-n2nc3ccc(C(F)(F)F)cc3n2)c1 [BB, 5-trifluoromethyl-2-(2-hydroxy-5-tert-octylphenyl)-2H-benzotriazole] | – | 0.33 | 0.27 | 0.20 | 0.6% | 0.016 | 2.654 | 2.638 | 14,000 | 348 nm | – | – | –
CC(C)(C)CC(C)(C)c1ccc(O)c(-n2nc3ccccc3n2)c1 [J] | – | – | – | – | 7.5% | 0.184 | 2.454 | 2.270 | – | – | 0.4134 | – | –
CC(C)(C)CC(C)(C)c1cc(-n2nc3ccccc3n2)c(O)c(C(C)(C)c2ccccc2)c1 [Q, 2-(2-hydroxy-3-α-cumyl-5-tert-octylphenyl)-2H-benzotriazole] | – | 0.28 | 0.07 | −0.02 | – | – | – | – | 16,500 | 345 nm | 0.2492 | 0.28 | Units Absorbance Loss ([6]; after 1253 hours of exposure, starting absorbance approximately 2.0, 1% hindered amine): 0.2351; Units Absorbance Loss ([6]; after 1264 hours of exposure): 0.2293; Units Absorbance Loss ([6]; after 1489 hours of exposure): 0.287; Units Absorbance Loss ([6]; after 1518 hours of exposure): 0.2662; Units Absorbance Loss ([6]; after 2521 hours of exposure): 0.4054
CCCCOc1ccc(-n2nc3ccccc3n2)c(O)c1 [Z, 2-(2-hydroxy-4-n-butoxyphenyl)-2H-benzotriazole] | – | – | – | – | – | – | – | – | – | – | – | 1.58 | –

The next lines start with results.

melting point | Compound | Absorbance @ 375 nm [1] | DE [2] | b [2] | % Loss [3] | Absorbance (max) Loss units [3] | Absorbance (max) 0 hrs [3] | Absorbance (max) 2000 hrs [3] | ε @ λ max [4] | λ max nm [4] | Units Absorbance Loss [5] | Units of Absorbance Loss [7] | further results
119 to 120 °C | Oc1ccc(C(F)(F)F)cc1-n1nc2ccccc2n1 [EE, 2-(2-hydroxy-5-trifluoromethylphenyl)-2H-benzotriazole] | 0.03 | – | – | – | – | – | – | 20,700 | 328 nm | – | – | red region absorbance ([1]; in words, upper regions (above 350 nm) of the UV spectra): poor red region absorbance
166 °C | CC(C)(C)c1cc(CCC(=O)O)cc(-n2nc3ccc(C(F)(F)F)cc3n2)c1O [Example 39, 3-(5-Trifluoromethyl-2H-benzotriazol-2-yl)-5-tert-butyl-4-hydroxyhydrocinnamic Acid] | – | – | – | – | – | – | – | – | – | – | – | –

Reference: US6458872B1, “Benzotriazole UV absorbers having enhanced durability” (Ciba Specialty Chemicals Corporation, priority 1997, dated 2002)
